Converted amounts (≈) assume the structure as drawn. Counter-ions that a name gives are not always drawn. Like-named read-outs stand apart in the source and are kept apart here.

One series addresses DDX3X (Homo sapiens, UniProt O00571). Description: nanoDSF enzymatic binding (melting temperature shift). Set-up: human DDX3X (residues 132-607, UniProtID: 000571, produced by Proteros GmbH); purchased Proteros GmbH. To be noted: DDX3X with AMPPNP 100 µM, no compound. The text has this: The binding of compounds to DDX3X have been assessed by nanoDSF analysis (NanoTemper Technologies GmbH, Flößergasse 4, 81369 München, Germany). NanoDSF technology is a Differential Scanning Fluorimetry method which measures the protein stability with high resolution without the need of a dye. In particular it measures the changes of the intrinsic tryptophan fluorescence at 330 and 350 nm and it is used to determine the melting temperature of a protein. In the folded state the residues of tryptophan are buried in the hydrophobic core. During denaturation the residues are more exposed and the fluorescence changes in both intensity and wavelength. In a typical experiment, the protein is mixed with the ligand in the reaction buffer and transferred into a capillary. The fluorescence is monitored over temperature gradient between 20 and 95°C with an increment of 2.5°C per minute. The interaction of the ligand to the folded state of the protein shifts the protein melting temperature (Tm) at higher or lower temperature.
Experimental conditions: the experiments were conducted with the device Prometheus NT.48 (NanoTemper Technologies GmbH), the enzyme used was the human DDX3X (residues 132-607, UniProtID: 000571, produced by Proteros GmbH). The assessed compounds were dissolved in pure DMSO adequate to obtain a concentration of compound of 100µM and DMSO 1% (v:v) in final solution. Reaction buffer for DDX3X was 20 mM HEPES, pH 7.5, 0.5 mM TCEP, 500 mM NaCl, 10% (v:v) Glycerin, with a final reaction volume of 10 µL and a final DMSO concentration of 1% (v:v). The reaction was performed in "High sensitivity capillaries" in the range of 20-95°C with a heating rate of 2.5°C/min, with an incubation time of 60 minutes.
• 1) Add appropriate volume of target enzyme in reaction buffer • 2) Add compound(s) in 100% DMSO (1% final DMSO conc.) • 3) Fill the capillary • 4) Measure fluorescence
The assay development was performed with DDX3X protein alone showing a Tm at 54.6 °C.
Binding of compound 5 was assessed with the NanoDSF technique, evaluating the association of the aforementioned compound with APO DDX3X and in presence of a competitor for the ATP binding site, Adenylyl imidodiphosphate (AMPPNP) to assess competition of compound 5 for the DDX3X ATP binding site. Table 6. Final protein and compound concentrations in the various assay setup:
All the measures were performed in triplicate and the average (Mean Tm) and standard deviation (SD) were calculated with the following equations: [formula] and SD = sqrt((∑((Tm−Mean Tm))^2)/(n−1)) [formula]
A change of 5xSD from the 1% DMSO control mean is considered to be a significant Tm change. Test of DDX3X with 1% DMSO was performed to obtain the reference melting temperature of the protein alone. Compounds are considered as binders if the Tm shifts by >= 5 times the standard deviation of the control (protein in the absence of compound). Table 7. DDX3X melting temperatures (Tm) at various experimental conditions

The next series relates to MDAMB231 cell line. Description: Cytotoxicity, cell count method. It counts as cell-based, human. Conditions: MDAMB231, 72 hours of incubation. As for the experimental part:
(§1) The anti-tumor activity of the compounds of the present invention was evaluated as the effect on the proliferation and survival of tumor cells by counting the number of living cells in presence or absence of the compounds ("cell count method"), and as the effect on the viability and metabolic activity of the cells, by using particular substrates that are converted by cellular enzymes into coloured or luminescent products, proportionally with metabolic activity and state of the cell, such as the MTS tetrazolium compound ("MTS method") or luciferin ("ATP-based method") respectively.
(§2) Cells were seeded at 3 to 5 x 10^4 cells/well density depending on cell lines and maintained at 37°C in 5% CO2. After 24 hours cells were treated with ascending concentrations of the investigational compounds and the reference (5-fluoro-Uracyl) in a range from 0 to 100 µM. Compounds were dissolved in DMSO which final concentration in each well was 0.5% v:v. After 72 h of incubation with compounds, the cells were detached with trypsin and re-suspended in 1 ml of complete medium; the cell number was evaluated using a Z2 Coulter Counter ("cell count method") (Attallah and Johnson, A simple highly sensitive methods for the determination of cell viability using an electronic particle analyzer, Coulter counter J. Immunol. Methods. 1981, 41, 155; Leonardi et al., Activated kinase screening identifies the IKBKE oncogene as a positive regulator of autophagy. Autophagy, 2019, 15, 312). Alternatively, after the 72 hours of incubation with compounds, the MTS solution (CellTiter 96® AQueous One Solution Cell Proliferation Assay) is added to each well and absorbance at 490 nm wavelength is read after 2 hours of incubation ("MTS method"). Results in Tables 8-13, 17, 18 were obtained with the cell count method. Results in Tables 14-15 were obtained with the MTS method. Results in Table 16 were obtained with ATP-based method.

In the next series the test system is A549 Red-FLuc. The series is described as follows: Cytotoxicity, cell count method. The format is cell-based. To be noted: Homo sapiens, 72 hours of incubation. On the procedure:
as §1, §2

The nature of series [1]: Kinetic solubility (turbidimetry). It counts as physicochemical. Conditions: for solubility at 2 h: 37 °C, kinetic from dmso stock; for Absorbance at 620nm: 2 h. On the procedure:
Kinetic solubility was assessed in phosphate buffered saline at pH 7.4 according to the turbidimetry method. Turbidity (precipitation) was measured by absorbance at 620 nm following incubation at 37°C for 2 h. Stock solution of compounds in DMSO were prepared to produce the desired final range of concentrations, then these were added to the buffer to obtain the final test compound concentrations (1 µM, 3 µM, 10 µM, 30 µM, 100 µM), with a final DMSO concentration 1%). Solubility was estimated from the concentration of tested compound that produced a significant increase in absorbance (≥ 0.003 OD at 620 nm) above vehicle control (1% DMSO in water). Miconazole, Reserpine and Propranolol were used as controls.

Chain of DDX3X (O00571 132-607): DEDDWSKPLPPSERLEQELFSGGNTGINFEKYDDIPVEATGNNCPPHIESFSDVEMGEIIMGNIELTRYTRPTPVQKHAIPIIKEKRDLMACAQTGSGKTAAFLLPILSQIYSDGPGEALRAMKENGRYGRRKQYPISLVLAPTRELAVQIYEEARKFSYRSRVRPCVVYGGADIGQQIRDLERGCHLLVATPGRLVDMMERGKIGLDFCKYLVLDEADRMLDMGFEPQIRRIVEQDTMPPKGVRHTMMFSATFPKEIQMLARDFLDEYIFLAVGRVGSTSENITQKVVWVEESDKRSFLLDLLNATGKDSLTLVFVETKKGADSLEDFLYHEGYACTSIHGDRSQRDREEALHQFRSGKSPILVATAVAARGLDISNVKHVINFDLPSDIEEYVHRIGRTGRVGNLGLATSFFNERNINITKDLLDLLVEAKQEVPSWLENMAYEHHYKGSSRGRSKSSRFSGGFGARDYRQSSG

For `Nc1ncnc2c1ncn2[C@@H]1O[C@H](COP(=O)(O)OP(=O)(O)NP(=O)(O)O)[C@@H](O)[C@H]1O` [AMPPNP, Adenylyl imidodiphosphate, reference compound], at DDX3X, the Tm amounted to 54.7 °C and the “effect on Tm upon binding” value was “no significant effect on Tm”.

Take `CCCCc1noc(-c2ccc(-c3nnc(-c4cccc(Cl)c4F)o3)cc2)n1` [Compound 1, 3-Butyl-5-(4-(5-(3-chloro-2-fluorophenyl)-1,3,4-oxadiazol-2-yl)phenyl)-1,2,4-oxadiazole]: the midpoint of inhibition in the series with MDAMB231 cell line (Homo sapiens, MDA-MB-231, 72 h), the IC50, lay at 1000 µM.

In the series on MDAMB231 cell line (Homo sapiens, MDA-MB-231, 72 h), `CCCCc1cn(-c2ccc(-c3nnc(-c4ccccc4)o3)cc2)nn1` [Compound 2, 2-(4-(4-butyl-1H-1,2,3-triazol-1-yl)phenyl)-5-phenyl-1,3,4-oxadiazole] showed an IC50 of 8.11 µM.

In turn, `CCCCc1cn(-c2ccc(-c3nnc(-c4ccccc4)o3)cc2)nn1` [Compound 3, 2-(4-(4-butyl-1H-1,2,3-triazol-1-yl)phenyl)-5-phenyl-1,3,4-oxadiazole] had an IC50 in the series with MDAMB231 cell line of 6.07 µM.

On to `CCCCc1cn(-c2ccc(-c3nnc(-c4ccccc4C)o3)cc2)nn1` [Compound 4, 2-(4-(4-butyl-1H-1,2,3-triazol-1-yl)phenyl)-5-(o-tolyl)-1,3,4-oxadiazole], for which the 50% inhibitory concentration (IC50) in the series with MDAMB231 cell line (Homo sapiens, MDA-MB-231, 72 h) came out at 38.9 µM.

The compound `CCCCc1cn(-c2ccc(-c3nnc(-c4cc(C(C)C)ccc4C)o3)cc2)nn1` [Compound 6, 2-(4-(4-butyl-1H-1,2,3-triazol-1-yl)phenyl)-5-(5-isopropyl-2-methylphenyl)-1,3,4-oxadiazole] had an IC50 in the series on MDAMB231 cell line (Homo sapiens, MDA-MB-231, 72 h) of 34.6 µM.

In the series on MDAMB231 cell line (Homo sapiens, MDA-MB-231, 72 h), `CCCCc1cn(-c2ccc(-c3nnc(-c4cccc5cnccc45)o3)cc2)nn1` [Compound 7, 2-(4-(4-butyl-1H-1,2,3-triazol-1-yl)phenyl)-5-(isoquinolin-5-yl)-1,3,4-oxadiazole] came in with a half-maximal inhibitory concentration (IC50) of 216 µM.

In the series on MDAMB231 cell line (Homo sapiens, MDA-MB-231, 72 h), `CCCCc1cn(-c2ccc(-c3nnc(-c4ccccc4OC(F)F)o3)cc2)nn1` [Compound 8, 2-(4-(4-butyl-1H-1,2,3-triazol-1-yl)phenyl)-5-(2-(difluoromethoxy)phenyl)-1,3,4-oxadiazole] gave an IC50 of 1000 µM.

`CCCCc1cn(-c2ccc(-c3nnc(-c4ccccc4F)o3)cc2)nn1` [Compound 9, 2-(4-(4-butyl-1H-1,2,3-triazol-1-yl)phenyl)-5-(2-fluorophenyl)-1,3,4-oxadiazole]: in the series with MDAMB231 cell line (Homo sapiens, MDA-MB-231, 72 h), the IC50 stood at 43.1 µM.

In the series on A549 Red-FLuc, `CCCCc1cn(-c2ccc(-c3nnc(-c4ccc(C5CCNCC5)cc4)o3)cc2)nn1` [Compound 19, 2-(4-(4-butyl-1H-1,2,3-triazol-1-yl)phenyl)-5-(4-(piperidin-4-yl)phenyl)-1,3,4-oxadiazole hydrochloride] gave an IC50 of 1.7 µM.

`CCCCc1cn(-c2ccc(-c3nnc(-c4cccc(OC5CCCC5)c4)o3)cc2)nn1` [Compound 22, 2-(4-(4-butyl-1H-1,2,3-triazol-1-yl)phenyl)-5-(3-(cyclopentyloxy)phenyl)-1,3,4-oxadiazole] displayed a concentration for half-maximal inhibition (IC50) in the series with A549 Red-FLuc of 3.42 µM.

In series [1] (pH 7.4, aqueous buffer), `Clc1ccc(COC(Cn2ccnc2)c2ccc(Cl)cc2Cl)c(Cl)c1` (stereo not drawn) [Miconazole] returned a solubility at 2 h of 10 to 30 µM (≈ 4.16 to 12.5 µg/mL). The “Absorbance at 620nm” value is listed as 0.037 in series [1] (1 µM, pH 7.4); 0.037 in series [1] (3 µM, pH 7.4); 0.037 in series [1] (10 µM, pH 7.4); 0.044 in series [1] (30 µM, pH 7.4); 0.053 in series [1] (100 µM, pH 7.4).

Turning to `CC(C)NCC(O)COc1cccc2ccccc12` (stereo not drawn) [Propranolol], the solubility at 2 h in series [1] (aqueous buffer, kinetic solubility, PBS pH 7.4, read-out: solubility) is above 100 µM. For the same compound, the “Absorbance at 620nm” value in series [1] (conc. 1 µM, PBS pH 7.4, 37°C) was 0.038; in series [1] (conc. 3 µM, PBS pH 7.4, 37°C), 0.037; in series [1] (conc. 10 µM, PBS pH 7.4, 37°C) it was 0.039; in series [1] (conc. 30 µM, PBS pH 7.4, 37°C), 0.038; in series [1] (conc. 100 µM, PBS pH 7.4, 37°C), 0.037.

On to `COC(=O)[C@H]1[C@H]2C[C@@H]3c4[nH]c5cc(OC)ccc5c4CCN3C[C@H]2C[C@@H](OC(=O)c2cc(OC)c(OC)c(OC)c2)[C@@H]1OC` [Reserpine], for which the solubility at 2 h in series [1] (pH 7.4, aqueous buffer) fell in the range of 30 to 100 µM (≈ 18.3 to 60.9 µg/mL). Also, the “Absorbance at 620nm” value is listed as 0.037 in series [1] (1 µM, pH 7.4); 0.037 in series [1] (3 µM, pH 7.4); 0.037 in series [1] (10 µM, pH 7.4); 0.040 in series [1] (30 µM, pH 7.4); 0.058 in series [1] (100 µM, pH 7.4).

The record behind these values is patent publication EP4050002A1, “ANTI-PROLIFERATIVE AGENTS” (First Health Pharmaceuticals B.V., priority 2021, dated 2022).
